Five molecules from patent US20080312268A1, “Substituted tricyclic piperidone compounds” (Gruenenthal GMBH, priority 2005, published 2008) can be followed below.

Structures can show the parent of a compound that is named as a salt.

The term melting point denotes the temperature, or range, at which the solid turns liquid.

One data set concerns the target T1, NA re-uptake (Rattus norvegicus, UniProt Q63380).
T1 construct: Synaptosomes from rat brain areas were freshly isolated for the purposes of these in-vitro studies; from tissue; host or cells: rat brain synaptosomes (P2 fraction), hypothalamus of male rats
Briefly: Measurement of noradrenalin re-uptake in rat brain synaptosomes. The class given is biochemical. The settings on record: synaptosomes (P2 fraction) from hypothalamus of male rat brains. The procedure:
Synaptosomes from rat brain areas were freshly isolated for the purposes of these in-vitro studies. In each case a “P2” fraction was used, which was prepared in accordance with the instructions given by Gray and Whittaker (E. G. Gray und V. P. Whittaker (1962) J. Anat. 76, 79-88). For NA uptake these vesicular particles were isolated from the hypothalamus of male rat brains.
(§1) A detailed description of the method can be found in the literature (M. Ch. Frink, H.-H. Hennies, W. Englberger, M. Haurand and B. Wilffert (1996) Arzneim.-Forsch./Drug Res. 46 (III), 11, 1029-1036).

The target of the next data set is T2, 5-HT re-uptake (Rattus norvegicus, UniProt P31652).
T2 construct: Synaptosomes from rat brain areas were freshly isolated for the purposes of these in-vitro studies; from tissue; host or cells: rat brain synaptosomes (P2 fraction), medulla and pons of male rats
Briefly: Measurement of serotonin re-uptake in rat brain synaptosomes. The class given is biochemical. The settings on record: synaptosomes (P2 fraction) from medulla and pons region of male rat brains. On the procedure: Synaptosomes from rat brain areas were freshly isolated for the purposes of these in-vitro studies. In each case a “P2” fraction was used, which was prepared in accordance with the instructions given by Gray and Whittaker (E. G. Gray und V. P. Whittaker (1962) J. Anat. 76, 79-88). For 5HT uptake these vesicular particles were isolated from the medulla and pons region of male rat brains.
as §1

T2 sequence (P31652 whole entry): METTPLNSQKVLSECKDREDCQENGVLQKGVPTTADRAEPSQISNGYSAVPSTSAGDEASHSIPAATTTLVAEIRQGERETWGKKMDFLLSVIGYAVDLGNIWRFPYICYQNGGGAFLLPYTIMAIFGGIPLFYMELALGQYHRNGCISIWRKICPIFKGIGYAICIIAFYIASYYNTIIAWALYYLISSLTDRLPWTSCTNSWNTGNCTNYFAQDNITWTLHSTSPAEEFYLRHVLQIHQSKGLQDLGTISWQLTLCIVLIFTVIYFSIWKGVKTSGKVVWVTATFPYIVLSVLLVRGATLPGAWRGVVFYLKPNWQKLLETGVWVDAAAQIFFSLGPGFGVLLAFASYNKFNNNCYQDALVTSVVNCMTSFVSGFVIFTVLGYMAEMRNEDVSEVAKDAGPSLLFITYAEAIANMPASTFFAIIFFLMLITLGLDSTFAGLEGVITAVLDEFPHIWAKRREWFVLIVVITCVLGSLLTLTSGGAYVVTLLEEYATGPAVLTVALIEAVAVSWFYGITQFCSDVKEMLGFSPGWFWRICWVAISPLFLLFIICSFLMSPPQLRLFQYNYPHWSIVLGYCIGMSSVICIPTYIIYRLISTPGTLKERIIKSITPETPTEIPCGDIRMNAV
T1 sequence (Q63380 1-617): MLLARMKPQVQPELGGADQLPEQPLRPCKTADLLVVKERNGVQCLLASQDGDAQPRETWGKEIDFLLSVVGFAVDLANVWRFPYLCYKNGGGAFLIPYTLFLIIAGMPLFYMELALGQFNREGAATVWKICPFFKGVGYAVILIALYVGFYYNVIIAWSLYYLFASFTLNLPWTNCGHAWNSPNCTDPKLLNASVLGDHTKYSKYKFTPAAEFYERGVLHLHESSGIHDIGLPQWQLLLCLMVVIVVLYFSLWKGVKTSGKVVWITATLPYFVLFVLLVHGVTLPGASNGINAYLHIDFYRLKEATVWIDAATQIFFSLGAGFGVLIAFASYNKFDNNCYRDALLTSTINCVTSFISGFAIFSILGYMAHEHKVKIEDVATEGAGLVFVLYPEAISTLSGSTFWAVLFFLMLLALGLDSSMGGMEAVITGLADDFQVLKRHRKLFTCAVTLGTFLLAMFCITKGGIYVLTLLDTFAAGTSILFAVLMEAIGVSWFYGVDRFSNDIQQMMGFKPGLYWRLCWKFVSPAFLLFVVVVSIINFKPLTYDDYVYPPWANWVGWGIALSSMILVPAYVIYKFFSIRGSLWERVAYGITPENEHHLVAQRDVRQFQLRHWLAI

`CCOC(=O)C12Cc3ccccc3C(CN(C(=O)Nc3ccccc3)C1)C2=O` (stereo not drawn) came in with a melting point of 199 to 203 °C.
Take `CCOC(=O)C12Cc3ccc(C#N)cc3C(CN(Cc3ccccc3)C1)C2=O` (stereo not drawn): the melting point lay within 158 to 160 °C.
As for `CCOC(=O)C12Cc3ccccc3C(CN(Cc3ccccc3)C1)C2=O` (stereo not drawn), the melting point fell in the range of 117 to 119 °C.
The same measure, in the same setting: next, `CCOC(=O)C12Cc3cc(OC)ccc3C(CN(Cc3ccccc3)C1)C2=O` (stereo not drawn): 84 to 85 °C.
Take `CCOC(=O)C12Cc3ccccc3C(CN(C)C1)C2=O` (stereo not drawn) [Compound 9, Ethyl-N-methyl-11-oxo-1,3,4,6-tetrahydro-1,5-methano-3-benzazocine-5(2H)-carboxylate hydrochloride]: at NA re-uptake, the “NA re-uptake [10 μm], % inhibition” value was 80%. In addition, on 5-HT re-uptake, the “5-HT re-uptake [10 μm], % inhibition” value came to 77%.
